A short description of series [1]: Retention factor, logKw of compound in MeOH/0.01 M phosphate buffer at pH 7.4 by RP-HPLC method. It is filed as physicochemical.
Series [2] in a line: Half life in mouse liver microsomes in presence of NADPH by liquid chromatographic method. It is filed as ADME. The note with it: for half-life: liver microsomes.
Series [3] concerns the target 5-hydroxytryptamine receptor 7 (Homo sapiens, UniProt P34969). The series is described as follows: Displacement of [3H]-5-CT from human 5-HT7b receptor expressed in HEK293 cell membranes after 1 hr by microbeta counting analysis.
The target of series [4] is T1, 5-hydroxytryptamine receptor 1A (Homo sapiens, UniProt P08908).
T1 sequence (P08908 whole entry): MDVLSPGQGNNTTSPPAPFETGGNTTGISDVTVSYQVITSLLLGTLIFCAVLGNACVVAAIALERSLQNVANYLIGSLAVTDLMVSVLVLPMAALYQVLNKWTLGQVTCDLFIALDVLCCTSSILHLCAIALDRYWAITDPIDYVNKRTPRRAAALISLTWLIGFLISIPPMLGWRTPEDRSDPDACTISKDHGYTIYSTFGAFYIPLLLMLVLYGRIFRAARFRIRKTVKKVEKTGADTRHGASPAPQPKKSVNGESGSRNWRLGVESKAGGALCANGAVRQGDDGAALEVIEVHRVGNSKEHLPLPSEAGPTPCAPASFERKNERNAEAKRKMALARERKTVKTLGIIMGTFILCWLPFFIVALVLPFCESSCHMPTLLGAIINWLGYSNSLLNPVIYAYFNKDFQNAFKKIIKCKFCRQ
Put plainly: Displacement of [3H]-8-OH-DPAT from human 5-HT1A receptor expressed in HEK293 cell membranes after 1 hr by microbeta counting analysis.

Series [5] in a line: Displacement of [3H]-prazosin from adrenergic alpha 1 receptor in pig brain cortical membranes after 50 mins by microbeta counting analysis. It counts as ADME, cell membranes, Sus scrofa.
Series [6] can be described thus: Stability in mouse liver microsomes assessed as oxidative metabolism by measuring drug recovery at 10 uM preincubated for 10 mins followed by NADPH addition measured after 30 mins by liquid chromatographic method. It is filed as ADME. The note with it: for remaining at 0.5 h, 10 µM: liver microsomes, read-out: Drug recovery.
For series [7], the target named is T2, 5-hydroxytryptamine receptor 6 (Homo sapiens, UniProt P50406). The series is described as follows: Displacement of [3H]-LSD from human 5-HT6 receptor expressed in HEK293 cell membranes after 1 hr by microbeta counting analysis.
Series [8] has as its target T3, D(2) dopamine receptor (Homo sapiens, UniProt P14416). The series is described as follows: Displacement of [3H]raclopride from human dopamine D2L receptor expressed in HEK293 cell membranes after 1 hr by microbeta counting analysis. It counts as cell-based.
Series [9] can be described thus: Half life in ip dosed mouse. The note with it: in vivo.
Series [10] can be described thus: Elimination half life in CD-1 mouse brain at 10 mg/kg, ip administered as single dose by LC/MS analysis. It is filed as ADME, organism-based. The conditions noted are these: read-out: beta t1/2 (converted).
Series [11] concerns the target 5-hydroxytryptamine receptor 7 (Mus musculus) (UniProt P32304). Put plainly: Agonist activity at 5-HT7 receptor in embryonic day 15 C57BL/6 mouse cortex assessed as increase in neurite length at 20 nM up to 24 hrs by DAPI staining based microscopy. It counts as tissue-based.
The target is the same in series [12]. The series is described as follows: Agonist activity at 5-HT7 receptor in embryonic day 15 C57BL/6 mouse cortex assessed as increase in neurite length at 20 nM after 30 mins by DAPI staining based microscopy relative to control. It counts as tissue-based.
Series [13] in a line: Elimination half life in CD-1 mouse plasma at 10 mg/kg, ip administered as single dose by LC/MS analysis. It counts as ADME, organism-based. The conditions noted are these: read-out: beta t1/2 (converted).
Series [14] is described as follows: Cmax in CD-1 mouse brain at 10 mg/kg, ip administered as single dose after 30 mins by LC/MS analysis. It counts as ADME, organism-based. The arrangement: dose 10 mg/kg, route intraperitoneal.
Series [15] can be described thus: Ratio of drug uptake in CD-1 mouse brain to plasma at 10 mg/kg, ip administered as single dose by LC/MS analysis. The note with it: read-out: BPR. It counts as ADME, organism-based.
In series [16] the target is 5-hydroxytryptamine receptor 7 (Mus musculus) (UniProt P32304). The series is described as follows: Agonist activity at 5-HT7 receptor in embryonic day 15 C57BL/6 mouse striatum assessed as increase in neurite length at 20 nM up to 4 hrs by DAPI staining based microscopy relative to control.
Series [17] in a line: Drug uptake in CD-1 mouse plasma at 10 mg/kg, ip administered as single dose measured up to 4 hrs by LC/MS analysis. It is filed as ADME, organism-based. The conditions noted are these: in vivo.
The target in series [18] is 5-hydroxytryptamine receptor 7 (Mus musculus) (UniProt P32304). Put plainly: Agonist activity at 5-HT7 receptor in embryonic day 15 C57BL/6 mouse striatum assessed as increase in neurite length at 20 nM after 30 mins by DAPI staining based microscopy relative to control.
Series [19] can be described thus: Cmax in CD-1 mouse plasma at 10 mg/kg, ip administered as single dose after 30 mins by LC/MS analysis. It is filed as ADME, organism-based. The arrangement: dose 10 mg/kg, route intraperitoneal.
Series [20] addresses T2, 5-hydroxytryptamine receptor 6. Put plainly: Displacement of [3H]-LSD from human 5-HT6 receptor after […] by cell based assay.
Series [21] has as its target T3, D(2) dopamine receptor. Put plainly: Binding affinity to dopamine D2 receptor (unknown origin).

Calls of active or inactive are those of the source. The calls are words filed in the database; no cut-off is given here.

T2 sequence (P50406 whole entry): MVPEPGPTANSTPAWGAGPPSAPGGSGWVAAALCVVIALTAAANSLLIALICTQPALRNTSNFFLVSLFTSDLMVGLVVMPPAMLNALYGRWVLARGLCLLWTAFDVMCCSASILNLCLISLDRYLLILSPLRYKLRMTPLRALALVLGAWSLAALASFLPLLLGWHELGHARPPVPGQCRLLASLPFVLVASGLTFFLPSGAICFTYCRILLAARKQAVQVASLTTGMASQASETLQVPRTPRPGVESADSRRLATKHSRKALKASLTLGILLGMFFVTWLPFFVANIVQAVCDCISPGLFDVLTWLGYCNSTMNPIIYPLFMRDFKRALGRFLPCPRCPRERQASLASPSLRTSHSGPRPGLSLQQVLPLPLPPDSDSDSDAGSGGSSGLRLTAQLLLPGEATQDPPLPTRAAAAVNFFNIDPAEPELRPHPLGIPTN
Chain of 5-hydroxytryptamine receptor 7 (P34969 whole entry): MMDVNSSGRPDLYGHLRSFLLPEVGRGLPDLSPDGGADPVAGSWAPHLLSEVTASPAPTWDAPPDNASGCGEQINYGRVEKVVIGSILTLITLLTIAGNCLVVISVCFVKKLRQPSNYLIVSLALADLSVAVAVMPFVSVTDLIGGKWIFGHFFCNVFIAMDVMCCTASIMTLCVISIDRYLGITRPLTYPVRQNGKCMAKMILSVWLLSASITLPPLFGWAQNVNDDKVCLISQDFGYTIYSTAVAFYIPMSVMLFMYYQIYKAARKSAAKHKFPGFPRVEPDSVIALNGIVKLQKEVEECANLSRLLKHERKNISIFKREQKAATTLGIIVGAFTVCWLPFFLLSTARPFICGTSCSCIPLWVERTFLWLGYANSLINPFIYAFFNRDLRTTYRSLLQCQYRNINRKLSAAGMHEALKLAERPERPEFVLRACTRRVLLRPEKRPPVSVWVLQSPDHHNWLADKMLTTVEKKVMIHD
Chain of 5-hydroxytryptamine receptor 7 (Mus musculus) (P32304 whole entry): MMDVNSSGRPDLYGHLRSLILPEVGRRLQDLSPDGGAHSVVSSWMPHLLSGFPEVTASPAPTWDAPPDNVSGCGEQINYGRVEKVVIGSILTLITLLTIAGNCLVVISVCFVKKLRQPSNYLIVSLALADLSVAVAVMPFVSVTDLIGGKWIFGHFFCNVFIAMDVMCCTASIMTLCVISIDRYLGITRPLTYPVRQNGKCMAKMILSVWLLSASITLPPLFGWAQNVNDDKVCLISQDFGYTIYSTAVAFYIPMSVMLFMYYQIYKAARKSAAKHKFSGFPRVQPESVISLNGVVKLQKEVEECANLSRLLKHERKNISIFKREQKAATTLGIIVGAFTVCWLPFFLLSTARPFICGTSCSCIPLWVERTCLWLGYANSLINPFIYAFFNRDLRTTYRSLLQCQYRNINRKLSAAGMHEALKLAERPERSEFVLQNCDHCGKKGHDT
T3 sequence (P14416 whole entry): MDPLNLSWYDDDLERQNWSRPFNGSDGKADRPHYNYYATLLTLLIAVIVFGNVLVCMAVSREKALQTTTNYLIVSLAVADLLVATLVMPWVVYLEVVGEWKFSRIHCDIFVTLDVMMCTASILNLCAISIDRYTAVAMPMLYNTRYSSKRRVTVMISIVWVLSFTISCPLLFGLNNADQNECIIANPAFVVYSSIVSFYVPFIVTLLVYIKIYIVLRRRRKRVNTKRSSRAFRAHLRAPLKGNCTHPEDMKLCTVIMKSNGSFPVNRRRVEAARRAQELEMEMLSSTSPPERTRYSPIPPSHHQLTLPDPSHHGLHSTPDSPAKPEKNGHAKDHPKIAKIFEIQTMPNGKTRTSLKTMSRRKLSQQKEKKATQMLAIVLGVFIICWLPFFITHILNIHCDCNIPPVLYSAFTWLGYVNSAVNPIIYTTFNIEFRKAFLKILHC

Consider `COc1ccc(-c2ccccc2N2CCN(CCCCCC(=O)N[C@@H](C)c3ccc(C#N)cc3)CC2)cc1`, for which the logKw in series [1] came out at 0.59. For the same compound, the half-life in series [2] was 29 min. Moreover, the Ki in series [3] came out at 19 nM; in [4], 147 nM; in series [5], 12.9 nM; in [7], 700 nM; on D(2) dopamine receptor [8] it was 308 nM. Also, the remaining at 0.5 h, 10 µM in series [6] is 24%.
On to `N#Cc1ccc(CNC(=O)CCCCCN2CCN(c3ccc(F)cc3-c3ccc(C#N)cc3)CC2)cc1`, for which the logKw in series [1] is 0.23. Besides, the half-life in [2] was found to be 26 min. Further, the Ki in series [3] amounted to 27 nM; in series [4], 2870 nM; in series [5], 3.2 nM; in series [7] it was 927 nM; on D(2) dopamine receptor [8], 1380 nM. Moreover, in series [6], the remaining at 0.5 h, 10 µM is 22%.
In series [1], `COc1ccc(-c2ccccc2N2CCN(CCCCCC(=O)N[C@H](C)c3ccc(C#N)cc3)CC2)cc1` displayed a logKw of 0.54. For the same compound, the half-life in [2] is 23 min. Further, the Ki in [3] is 12 nM; in series [4], 109 nM; in series [5], 17.8 nM; in series [7], 843 nM; at D(2) dopamine receptor [8] it was 243 nM. Besides, the remaining at 0.5 h, 10 µM in series [6] worked out at 26%.
In the case of `O=C1CCc2ccc(OCCCCN3CCN(c4cccc(Cl)c4Cl)CC3)cc2N1` [ARIPIPRAZOLE], the half-life in [9] is 264 min.
As for `COc1ccc(-c2cc(F)ccc2N2CCN(CCCCCC(=O)NCc3ccc(C#N)cc3)CC2)cc1`, the half-life was 61.2 min in series [10] and 64.2 min in series [13]. In series [1], the logKw came to 0.52. Moreover, in series [11], the result was Active. Besides, the t1/2 in series [2] (microsomes) came out at 45 min. For the same compound, the Activity was 130% in series [12], 126% in series [16] and 124% in [18]. In addition, the Cmax in series [14] turned out to be 515 ng/mL; in series [19], 1170 ng/mL. In addition, the Ki in [3] was 25.5 nM; in series [4] it was 771 nM; in series [5], 6.6 nM; in [7] it was 614 nM; on D(2) dopamine receptor [8], 522 nM. Also, in [15], the Kp was determined as 0.5. Moreover, the Drug recovery in series [6] (microsomes, 0.5 h, 10 µM) was 27%. Moreover, the Drug uptake entry in series [17] is listed as “Active”.
Take `COc1ccc(-c2ccccc2N2CCN(CCCCCC(=O)NCc3ccc(C#N)cc3)CC2)cc1`: the logKw in series [1] amounted to 0.54. Besides, the half-life in [2] was found to be 18 min. For the same compound, the inhibitory constant (Ki) in [3] was found to be 8 nM; in series [4] it was 126 nM; in series [5] it was 30 nM; in series [7] it was 745 nM; at D(2) dopamine receptor [8], 293 nM. Moreover, the remaining at 0.5 h, 10 µM in [6] came out at 25%.
In turn, `O=C(CCOCCN1CCN(c2cccnc2-c2ccccc2)CC1)NCc1ccc(C(F)(F)F)cc1` came in with a logKw in series [1] of 0.16. In addition, the Ki in series [3] was found to be 44 nM; in [4], 802 nM; in series [5] it was 471 nM; in [7], 2210 nM; on D(2) dopamine receptor [8], 2770 nM. Besides, the remaining at 0.5 h, 10 µM in series [6] turned out to be 1%.
`COCOc1ccc(CNC(=O)CCCCCN2CCN(c3ccccc3-c3ccccc3)CC2)cc1` returned a logKw in series [1] of 0.44. For the same compound, the Ki in [3] worked out at 4.5 nM; in [4], 86 nM; in series [5] it was 20 nM; in series [7], 413 nM; on D(2) dopamine receptor [8] it was 36 nM. In addition, the remaining at 0.5 h, 10 µM in series [6] was 5.4%.
`COc1ccc(-c2ccccc2N2CCN(CCCCCC(=O)NCc3ccc(OCCO)cc3)CC2)cc1` showed a logKw in [1] of 0.39. Moreover, the inhibition constant Ki came to 14.5 nM in series [3]; 152 nM in [4]; 53 nM in series [5]; 1340 nM in series [7]; 419 nM on D(2) dopamine receptor [8]. The remaining at 0.5 h, 10 µM in series [6] amounted to 19%.
With `O=C(CCOCCN1CCN(c2ncccc2-c2ccc(F)cc2)CC1)NCc1ccc(C(F)(F)F)cc1`, in series [1], the logKw came to 0.42. Besides, the Ki is 32 nM in [3]; 1840 nM in series [4]; 1370 nM in series [5]; 1070 nM in series [7]; 393 nM at D(2) dopamine receptor [8]. The remaining at 0.5 h, 10 µM in series [6] amounted to 2%.
In series [1], `N#Cc1ccc(CNC(=O)CCCCCN2CCN(c3ccccc3-c3ccccc3)CC2)cc1` gave a logKw of 0.58. Also, the inhibition constant Ki stood at 1570 nM in series [20] and 242 nM at D(2) dopamine receptor [21]. Further, the remaining at 0.5 h, 10 µM in series [6] came out at 20%.
